One compound from article PMC7830714 (Molecular pharmaceutics, 2017) can be followed below.

For the data set, the target named is T1, ABCG2 (Homo sapiens, UniProt Q9UNQ0).
T1 sequence (Q9UNQ0 1-655): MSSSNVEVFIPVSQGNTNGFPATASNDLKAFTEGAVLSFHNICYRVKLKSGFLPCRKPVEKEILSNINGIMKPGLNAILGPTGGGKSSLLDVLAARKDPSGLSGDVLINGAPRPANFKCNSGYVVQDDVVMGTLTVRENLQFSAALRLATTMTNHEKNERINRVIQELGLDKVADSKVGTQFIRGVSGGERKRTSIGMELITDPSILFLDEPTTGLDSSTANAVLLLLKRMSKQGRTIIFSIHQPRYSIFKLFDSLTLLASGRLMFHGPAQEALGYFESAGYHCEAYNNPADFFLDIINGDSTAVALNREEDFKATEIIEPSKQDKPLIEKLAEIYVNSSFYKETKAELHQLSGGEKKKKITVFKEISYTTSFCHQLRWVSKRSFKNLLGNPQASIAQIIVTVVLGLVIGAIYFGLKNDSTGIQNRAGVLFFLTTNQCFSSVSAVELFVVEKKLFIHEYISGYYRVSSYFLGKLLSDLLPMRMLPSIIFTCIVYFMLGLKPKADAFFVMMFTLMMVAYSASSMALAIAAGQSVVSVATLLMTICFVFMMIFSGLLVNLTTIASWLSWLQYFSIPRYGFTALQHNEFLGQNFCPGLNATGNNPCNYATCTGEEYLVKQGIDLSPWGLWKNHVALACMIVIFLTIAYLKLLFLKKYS
Put plainly: inhibition of […]IAAP photoaffinity labeling in MCF7-FLV1000 membrane vesicles. Format: binding.

As to `N#Cc1ccc(-c2c(-c3ncn[nH]3)sc(N3CCOCC3)c2C#N)c(F)c1` [PF-4989216], the “% inhibition of photolabeling at 10 μM” value is ~ 55.
